According to patent US9517985B2, “Method for producing butanol using extractive fermentation” (Butamax Advanced Biofuels LLC, priority 2013, dated 2016):
Read-outs that look alike come from different tables or passages of the source.

Legend:
[1] = Secondary screen for solvent biocompatibility (shake flask; Cellometer viability, glucose, isobutanol); conditions: yeast (isobutanologen)
[2] = tested on: isobutanologen; test: as above; conditions: 30° C.; for % Viability: relative to oleyl alcohol
[3] = tested on: isobutanologen; test: Automated primary screen for solvent biocompatibility (96 well plate, propidium iodide dead-cell fluorescence); format: cell-based
[4] = tested on: isobutanologen; test: Tertiary screen for solvent biocompatibility (growth of isobutanologen in rich media with solvent, time course); format: cell-based; conditions: for isobutanol production: FIG. 11, versus oleyl alcohol control; for glucose consumption: FIG. 12, versus oleyl alcohol control; for ethanol consumption: FIG. 13, versus oleyl alcohol control
[5] = tested on: isobutanologen
[6] = tested on: isobutanologen; test: Three step screening process, overall biocompatibility call
[7] = tested on: modified Escherichia coli strain; conditions: oleyl alcohol as the organic extractant, Example 6 of US 2009/0305370; cited from earlier work
[8] = propidium iodide signal, 1 h exposure, 1:1 aq:org, room temperature

Row | Compound | viability at 4 h [1] [%] | viability at 25 h [1] [%] | Glucose ([2]; 4 Hours) [g/L] | iBuOH ([2]; 4 Hours) [g/L] | Glucose ([2]; 25 Hours) [g/L] | iBuOH ([2]; 25 Hours) [g/L] | viability at 30 h [1] [%] | Glucose ([2]; 30 Hours) [g/L] | iBuOH ([2]; 30 Hours) [g/L] | also measured
1 | CCCCOCCOCCCC [1,2-dibutoxyethane] | 63 | 8 | 11.9 | 0.4 | 10.7 | 0.4 |  |  |  | 
2 | CC(C)CC(O)CC(C)C [2,6-dimethylheptan-4-ol] | 42 | 8 | 12.1 | 0.0 | 11.8 | 0.0 |  |  |  | 
3 | CCCCC(CC)COC(C)=O (stereo not drawn) [2-ethyl hexyl acetate] |  |  | 10.5 | 0.6 | 7.1 | 1.2 |  |  |  | % Dead [3, 8]: 3%; % Viability ([2]; 4 Hours, 1:1): 96%; % Viability ([2]; 25 Hours, 1:1): 42%
4 | CCCCC(CC)CO (stereo not drawn) [2-ethyl-1-hexanol, reference compound] | 14 | 6 | 13.1 | 0.0 | 13.7 | 0.0 | 47 | 16.8 | 0.0 | viability at 5 h [1]: 58%
5 | CCCCC(CC)COCCO (stereo not drawn) [2-ethylhexylglycol ether] |  |  |  |  |  |  |  |  |  | % Dead [3, 8]: 79%
6 | CC(C)CC(=O)CC(C)C [2.6-dimethylheptan-4-one] |  |  | 10.9 | 0.6 | 7.9 | 0.9 |  |  |  | % Dead [3, 8]: 5%; % Viability ([2]; 4 Hours, 1:1): 78%; % Viability ([2]; 25 Hours, 1:1): 26%
7 | Cc1cccc2cccnc12 [8-methylquinoline] |  |  |  |  |  |  | 47 | 17.5 | 0.0 | 
8 | CCOC(C)(C)C [ETBE] |  |  | 12.5 | 0.0 | 12.8 | 0.0 |  |  |  | % Dead [3, 8]: 6%; % Viability ([2]; 4 Hours, 1:1): 16%; % Viability ([2]; 25 Hours, 1:1): 4%
9 | COC(C)(C)C [MTBE] |  |  | 12.7 | 0.0 | 12.9 | 0.2 |  |  |  | % Dead [3]: 19%
10 | C1CCC2CCCCC2C1 (stereo not drawn) [decalin] | 76 | 36 | 11.2 | 0.4 | 10.3 | 0.5 |  |  |  | 
11 | CCCCCCOCCCCCC [di-n-hexyl ether] | 106 | 62 | 8.1 | 1.1 | 0.9 | 1.9 |  |  |  | 
12 | CCCCCCCCOCCCCCCCC [di-n-octyl ether] |  |  |  |  |  |  | 99 | 0.0 | 1.9 | isobutanol production [4]: comparable to oleyl alcohol; glucose consumption [4]: comparable to oleyl alcohol; ethanol consumption [4]: comparable to oleyl alcohol; viability at 5 h [1]: 99%
13 | CCCCCCCCCCCC=O [dodecanal] |  |  |  |  |  |  | 62 | 0.0 | 0.0 | biocompatibility [5]: toxic; viability at 5 h [1]: 78%
14 | CCCCCCCCCCCC [dodecane] |  |  |  |  |  |  | 99 | 0.0 | 1.9 | isobutanol production [4]: comparable to oleyl alcohol; glucose consumption [4]: comparable to oleyl alcohol; ethanol consumption [4]: comparable to oleyl alcohol; biocompatibility [6]: biocompatible; viability at 5 h [1]: 99%
15 | CCCCCCCCCCCCO [dodecanol] |  |  |  |  |  |  |  |  |  | biocompatibility [6]: toxic
16 | CC(C)CC(C)(C)C [isooctane] | 90 | 31 | 10.8 | 0.5 | 8.5 | 0.8 |  |  |  | 
17 | Cc1cc(C)cc(C)c1 [mesitylene] | 64 | 17 | 12.5 | 0.0 | 12.1 | 0.1 |  |  |  | 
18 | CCCCCCCCCCCC(=O)OC [methyl laurate] | 110 | 94 | 3.9 | 2.1 | 0.0 | 1.6 |  |  |  | isobutanol production [4]: comparable to oleyl alcohol; glucose consumption [4]: comparable to oleyl alcohol; ethanol consumption [4]: comparable to oleyl alcohol
19 | CCCCOC(C)=O [n-butyl acetate] |  |  |  |  |  |  | 35 | 16.6 | 0.0 | viability at 5 h [1]: 46%
20 | CCCCOC(=O)CCC [n-butyl n-butyrate] | 48 | 7 | 12.4 | 0.0 | 11.7 | 0.0 |  |  |  | 
21 | CCCCCCCCCC [n-decane] | 107 | 54 | 5.8 | 1.6 | 0.0 | 2.3 |  |  |  | 
22 | CCCCCCOC(C)=O [n-hexyl acetate] | 18 | 3 | 12.8 | 0.0 | 13.0 | 0.0 |  |  |  | 
23 | CCCCCCCCCCC [n-undecane] |  |  |  |  |  |  | 100 | 0.0 | 1.9 | isobutanol production [4]: comparable to oleyl alcohol; glucose consumption [4]: comparable to oleyl alcohol; ethanol consumption [4]: comparable to oleyl alcohol; viability at 5 h [1]: 98%
24 | CCCCCCCC/C=C\CCCCCCCCO [oleyl alcohol, reference compound] | 100 | 100 | 5.7 | 1.8 | 0.0 | 2.6 | 100 | 0.0 | 2.2 | effective titer for isobutanol [7]: 37 g/L; viability at 5 h [1]: 100%
25 | primary amyl acetate mixed isomers |  |  |  |  |  |  |  |  |  | % Dead [3, 8]: 104%
26 | trimethylnonanol |  |  |  |  |  |  |  | 0.0 | 2.1 | % Dead [3, 8]: 3%; isobutanol production [4]: comparable to oleyl alcohol; glucose consumption [4]: comparable to oleyl alcohol; ethanol consumption [4]: comparable to oleyl alcohol; biocompatibility [5]: biocompatible; % Viability ([2]; 5 Hours): 99%; % Viability ([2]; 30 Hours): 98%
